The record followed here is US20100048498A1, “STABLE NON-DIHYDRATE AZITHROMYCIN ORAL SUSPENSIONS” (priority 2004, published 2010).

Common to all, as to type: physicochemical
The nature of series [1]: Stability of non-dihydrate azithromycin in suspension (POS formulation II or bulk drug in water); SS-NMR quantification of form A.
Description: The stability of various forms of non-dihydrate azithromycin, in water and in flavored oral suspensions, was evaluated. Specifically, non-dihydrate azithromycin forms G, M, N, F and J were separately used in POS formulation II. These POS formulations were constituted by mixing with 18 mls of water. The suspensions were then stored for 1, 5 and 10 days at either 5° C. or 30° C. Suspensions of bulk azithromycin forms G, M, N, F and J were also constituted with 18 mls of water and stored under the same conditions.
Upon conclusion of the storage time period the suspensions were filtered and suspended solids collected as described previously.
Series [2] is described as follows: Effect of cyclodextrins on non-dihydrate azithromycin form conversion in constituted POS formulation II. The following applies: for % Form A: 18 mls water. The procedure: The effect of adding a complexing agent such as cyclodextrin on the stability of non-dihydrate azithromycin forms G, M and F against conversion in a constituted POS formulation were evaluated.
Forms G, M and F of azithromycin were formulated into POS formulation II. Various cyclodextrins were added to the POS formulation II and the resulting samples were constituted with 18 mls of water. The suspensions were then stored for 24 hours at room temperature. At the end of the storage time, the suspensions were filtered and the recovered solids were weighed and analyzed by SS-NMR to quantify the presence of azithromycin dihydrate (form A). The control samples were formulated into formulation II with non-dihydrate azithromycin form G, M and F without cyclodextrins and were constituted with water, stored, filtered and analyzed identically to the cyclodextrin samples described above. A control, which had no cyclodextrin was run with each series of experiments. The SS-NMR data are presented in Tables 10, 11, 12 and the results are given as weight percent (% wt), of the recovered azithromycin sample.

Series [3] can be described thus: Effects of flavoring components upon azithromycin form F conversion in constituted POS. The following applies: room temperature. An excerpt:
POS formulation II was constituted with water and stored identically to serve as a control for this experiment.

Where [4] appears, read: Bulk Drug in 18 mls water, 5° C., Day 1.
[5] abbreviates: Bulk Drug in 18 mls water, 5° C., Day 10.
The mark [6] stands for this setting: Bulk Drug in 18 mls water, 30° C., Day 1.
[7] abbreviates: Bulk Drug in 18 mls water, 30° C., Day 10.
[8] abbreviates: Formulation II constituted with 18 mls water, 5° C., Day 1.
The mark [9] stands for this setting: Formulation II constituted with 18 mls water, 5° C., Day 10.
The mark [10] stands for this setting: Formulation II constituted with 18 mls water, 30° C., Day 1.
Setting [11] is: Formulation II constituted with 18 mls water, 30° C., Day 10.
The mark [12] stands for this setting: POS Formulation II + Hydroxypropyl β-cyclodextrin 11.1 % w/w, 24 hours room temperature (Tables 11, 12).
Setting [13] is: POS Formulation II, no cyclodextrin (Control), 24 hours room temperature (Tables 11, 12).

For `CCC1OC(=O)C(C)C(O[C@H]2C[C@@](C)(OC)[C@@H](O)C(C)O2)C(C)[C@@H](OC2OC(C)CC(N(C)C)[C@H]2O)[C@@](C)(O)C[C@@H](C)CN(C)[C@H](C)[C@@H](O)[C@]1(C)O` (some centres unmarked) [Form M, azithromycin monohydrate hemi-isopropanol solvate], the “% A (azithromycin dihydrate, form A, of recovered azithromycin)” value in series [1] (setting [4]) came to 0%; in series [1] (Bulk Drug in 18 mls water, 5° C., Day 5), 0%; in series [1] (setting [5]), 0%; in series [1] (setting [6]), 0%; in series [1] (Bulk Drug in 18 mls water, 30° C., Day 5) it was 0%; in series [1] (setting [7]), 0%. Besides, the “% A (azithromycin dihydrate, form A, of recovered azithromycin)” value in series [1] (setting [8]) came to 23%; in series [1] (Formulation II constituted with 18 mls water, 5° C., Day 5) it was 38%; in series [1] (setting [9]), 40%; in series [1] (setting [10]), 28%; in series [1] (Formulation II constituted with 18 mls water, 30° C., Day 5), 36%; in series [1] (setting [11]), 62%. The “% Form A” value in series [2] (setting [12]) is on record as 0.0%; in series [2] (POS Formulation II + Hydroxypropyl β-cyclodextrin 11.1 % w/w, 24 hours room temperature (Tables 11, 12), listed as form M) it was “no conversion”; in series [2] (POS Formulation II + β-cyclodextrin 1.2 % w/w, 24 hours room temperature (Table 12)) it was 0.9%; in series [2] (POS Formulation II + β-cyclodextrin 1.2 % w/w, 24 hours room temperature (Table 12), listed as form M), “very small amount of conversion”; in series [2] (POS Formulation II + γ-cyclodextrin 1.2 % w/w, 24 hours room temperature (Table 12)), 29.9%; in series [2] (setting [13]), 71.6%.
For the molecule `CCC1OC(=O)C(C)C(O[C@H]2C[C@@](C)(OC)[C@@H](O)C(C)O2)C(C)[C@@H](OC2OC(C)CC(N(C)C)[C@H]2O)[C@@](C)(O)C[C@@H](C)CN(C)[C@H](C)[C@@H](O)[C@]1(C)O` (some centres unmarked) [Form J, azithromycin monohydrate hemi-n-propanol solvate], the “% A (azithromycin dihydrate, form A, of recovered azithromycin)” value in series [1] (setting [4]), in series [1] (setting [5]), in series [1] (setting [6]), in series [1] (setting [7]), in series [1] (setting [8]) and in series [1] (setting [9]) was 0% each time. Moreover, the “% A (azithromycin dihydrate, form A, of recovered azithromycin)” value in series [1] (setting [10]) and in series [1] (setting [11]) was 0% throughout.
`CCC1OC(=O)C(C)C(O[C@H]2C[C@@](C)(OC)[C@@H](O)C(C)O2)C(C)[C@@H](OC2OC(C)CC(N(C)C)[C@H]2O)[C@@](C)(O)C[C@@H](C)CN(C)[C@H](C)[C@@H](O)[C@]1(C)O` (some centres unmarked) [Form F, azithromycin monohydrate hemi-ethanol solvate]: the “% A (azithromycin dihydrate, form A, of recovered azithromycin)” value was 0% in series [1] (setting [4]); 0% in series [1] (setting [5]); 0% in series [1] (setting [6]); 0% in series [1] (setting [7]); 6% in series [1] (setting [8]); 27% in series [1] (setting [9]). Further, the “% A (azithromycin dihydrate, form A, of recovered azithromycin)” value in series [1] (setting [10]) was determined as 19%; in series [1] (setting [11]), 31%. Also, the “% F (SS-NMR Evaluation after 24 hrs constitution)” value in series [3] (Formulation I constituted with 18 mL 0.0577 mg/ml benzaldehyde), in series [3] (Formulation I constituted with 18 mL 0.922 mg/ml 3-methyl-butyl acetate + 0.0577 mg/ml benzaldehyde), in series [3] (Formulation I constituted with 18 mL 0.922 mg/ml 3-methyl-butyl acetate), in series [3] (Formulation I constituted with 18 mL 1.666 mg/ml 3-methyl-butyl acetate) and in series [3] (Formulation II constituted with 18 mL Water) was 0% in each case. Besides, the “% Form A” value in series [2] (setting [12]) came out at 0.0%; in series [2] (POS Formulation II + Sulfobutylether β-cyclodextrin 11.1 % w/w, 24 hours room temperature (Table 11)), 0.0%; in series [2] (POS Formulation II + α-cyclodextrin 1.2 % w/w, 24 hours room temperature (Table 11)), 0.0%; in series [2] (setting [13]) it was 74.6%. For the same molecule, the “conversion to form A” value in series [2] (POS Formulation II when cyclodextrins were present, 24 hours room temperature) was “no conversion”.
